{
  "source": "ChEMBL document CHEMBL2311415",
  "about": "“Cytotoxic quassinoids from Ailanthus altissima” (Bioorg Med Chem Lett, 2013)",
  "key": {"HepG2 [1]": {"system": "HepG2", "test": "Cytotoxicity against human HepG2 cells measured after 48 hrs by MTT assay", "format": "functional, cell-based", "conditions": "HepG2, 48 h"}, "HepG2 [2]": {"system": "HepG2", "test": "Cytotoxicity against human adriamycin-resistant HepG2 cells measured after 48 hrs by MTT assay", "format": "functional, cell-based", "conditions": "HepG2, 48 h"}, "[3]": {"test": "Cytotoxicity against human Hep3B cells measured after 48 hrs by MTT assay", "format": "functional, cell-based, Hep 3B2"}},
  "data": [
    {"smiles": "CC(=O)O[C@@H]1C(=O)[C@H](C)[C@@H]2CC(=O)O[C@@H]3C[C@H]4[C@H](C)C[C@H](O)C(=O)[C@]4(C)[C@@H]1[C@@]32C", "values": [
      {"measurement": "IC50", "setting": "HepG2 [1]", "value": "> 50", "unit": "µM"},
      {"measurement": "IC50", "setting": "HepG2 [2]", "value": "> 50", "unit": "µM"},
      {"measurement": "IC50", "setting": "[3]", "value": "> 50", "unit": "µM"}
    ]},
    {"smiles": "C/C=C(/C)C(=O)O[C@@H]1[C@H]2C(C)=C[C@H](O)[C@@H](O)[C@]2(C)[C@H]2[C@@]3(O)OC[C@@]24[C@@H]1OC(=O)C[C@H]4[C@@H](C)[C@H]3O", "values": [
      {"measurement": "IC50", "setting": "HepG2 [1]", "value": 10.5, "unit": "µM"},
      {"measurement": "IC50", "setting": "HepG2 [2]", "value": "> 50", "unit": "µM"},
      {"measurement": "IC50", "setting": "[3]", "value": 2.43, "unit": "µM"}
    ]},
    {"smiles": "C=C1[C@@H](O)[C@]2(O)OC[C@@]34[C@H]1[C@@H](OC(=O)[C@](C)(O)CC)C(=O)O[C@@H]3C[C@H]1C(C)=C[C@H](O)[C@@H](O)[C@]1(C)[C@@H]24", "values": [
      {"measurement": "IC50", "setting": "HepG2 [1]", "value": 1.15, "unit": "µM"},
      {"measurement": "IC50", "setting": "HepG2 [2]", "value": 19.6, "unit": "µM"},
      {"measurement": "IC50", "setting": "[3]", "value": 0.98, "unit": "µM"}
    ]},
    {"smiles": "C/C=C(/C)C(=O)O[C@@H]1[C@H]2C(C)=CC(=O)[C@@H](O)[C@]2(C)[C@H]2[C@@]3(O)OC[C@@]24[C@@H]1OC(=O)C[C@H]4[C@@H](C)[C@H]3O", "values": [
      {"measurement": "IC50", "setting": "HepG2 [1]", "value": 0.55, "unit": "µM"},
      {"measurement": "IC50", "setting": "HepG2 [2]", "value": 16.9, "unit": "µM"},
      {"measurement": "IC50", "setting": "[3]", "value": 0.05, "unit": "µM"}
    ]},
    {"smiles": "C=C1[C@@H](O)[C@@]2(O)OC[C@@]34[C@H]1[C@@H](OC(=O)C(O)(CC)COC(=O)/C(C)=C\\C)C(=O)O[C@@H]3C[C@H]1C(C)=CC(=O)[C@@H](O)[C@]1(C)[C@@H]24", "note": "(stereo partly specified) [ALTISSINOL A]", "values": [
      {"measurement": "IC50", "setting": "HepG2 [1]", "value": 0.28, "unit": "µM"},
      {"measurement": "IC50", "setting": "HepG2 [2]", "value": "> 50", "unit": "µM"},
      {"measurement": "IC50", "setting": "[3]", "value": 0.37, "unit": "µM"}
    ]},
    {"smiles": "C=C1[C@@H](O)[C@@]2(O)OC[C@@]34[C@H]1[C@@H](OC(=O)C(C)CC)C(=O)O[C@@H]3C[C@H]1C(C)=C[C@H](O)[C@@H](O)[C@]1(C)[C@@H]24", "note": "(stereo partly specified) [ALTISSINOL B]", "values": [
      {"measurement": "IC50", "setting": "HepG2 [1]", "value": 1.22, "unit": "µM"},
      {"measurement": "IC50", "setting": "HepG2 [2]", "value": "> 50", "unit": "µM"},
      {"measurement": "IC50", "setting": "[3]", "value": 2.36, "unit": "µM"}
    ]},
    {"smiles": "C[C@@H]1C[C@H](O)C(=O)[C@]2(C)[C@H]3[C@H](O)C(=O)[C@H](C)[C@@H]4CC(=O)O[C@H](C[C@@H]12)[C@]34C", "note": "[AMAROLIDE]", "values": [
      {"measurement": "IC50", "setting": "HepG2 [1]", "value": "> 50", "unit": "µM"},
      {"measurement": "IC50", "setting": "HepG2 [2]", "value": "> 50", "unit": "µM"},
      {"measurement": "IC50", "setting": "[3]", "value": "> 50", "unit": "µM"}
    ]},
    {"smiles": "CC1=CC(=O)[C@@H](O)[C@]2(C)[C@H]3[C@@]4(O)OC[C@@]35[C@@H](C[C@@H]12)OC(=O)C[C@H]5[C@@H](C)[C@H]4O", "note": "[CHAPARRINONE]", "values": [
      {"measurement": "IC50", "setting": "HepG2 [1]", "value": 1.2, "unit": "µM"},
      {"measurement": "IC50", "setting": "HepG2 [2]", "value": "> 50", "unit": "µM"},
      {"measurement": "IC50", "setting": "[3]", "value": 2.17, "unit": "µM"}
    ]},
    {"smiles": "C[C@H]1[C@H](O)C(=O)[C@@H]2[C@@]3(C)[C@H](O)[C@@H](O)C[C@@H](C)[C@@H]3C[C@H]3OC(=O)C[C@@H]1[C@@]23C", "note": "[CHAPARROLIDE]", "values": [
      {"measurement": "IC50", "setting": "HepG2 [1]", "value": "> 50", "unit": "µM"},
      {"measurement": "IC50", "setting": "HepG2 [2]", "value": "> 50", "unit": "µM"},
      {"measurement": "IC50", "setting": "[3]", "value": "> 50", "unit": "µM"}
    ]},
    {"smiles": "COc1cccc2c1C(=O)c1c(O)c3c(c(O)c1C2=O)C[C@@](O)(C(=O)CO)C[C@@H]3O[C@H]1C[C@H](N)[C@H](O)[C@H](C)O1", "note": "[DOXORUBICIN]", "values": [
      {"measurement": "IC50", "setting": "HepG2 [2]", "value": 85.5, "unit": "µM"},
      {"measurement": "IC50", "setting": "[3]", "value": 0.29, "unit": "µM"}
    ]},
    {"smiles": "CC[C@](C)(O)C(=O)O[C@H]1C(=O)O[C@@H]2C[C@H]3C(C)=C[C@H](O)[C@@H](O)[C@]3(C)[C@H]3[C@]4(O)OC[C@]32[C@@H]1[C@@H](C)[C@H]4O", "note": "[GLAUCARUBIN]", "values": [
      {"measurement": "IC50", "setting": "HepG2 [1]", "value": 35.6, "unit": "µM"},
      {"measurement": "IC50", "setting": "HepG2 [2]", "value": "> 50", "unit": "µM"},
      {"measurement": "IC50", "setting": "[3]", "value": 23.5, "unit": "µM"}
    ]},
    {"smiles": "C=C1[C@H](O)[C@]2(O)OC[C@]34[C@H]2[C@@]2(C)[C@H](O)[C@@H](O)C=C(C)[C@@H]2C[C@H]3OC(=O)C[C@@H]14", "note": "[SHINJULACTONE A]", "values": [
      {"measurement": "IC50", "setting": "HepG2 [1]", "value": 4.67, "unit": "µM"},
      {"measurement": "IC50", "setting": "HepG2 [2]", "value": "> 50", "unit": "µM"},
      {"measurement": "IC50", "setting": "[3]", "value": 8.01, "unit": "µM"}
    ]},
    {"smiles": "CC1=CC(=O)O[C@@H]1[C@@]1(C)C[C@H]2OC(=O)C[C@H]3[C@@H](C)C(=O)C(O)=C1[C@@]23CO", "note": "[SHINJULACTONE B]", "values": [
      {"measurement": "IC50", "setting": "HepG2 [1]", "value": "> 50", "unit": "µM"},
      {"measurement": "IC50", "setting": "HepG2 [2]", "value": "> 50", "unit": "µM"},
      {"measurement": "IC50", "setting": "[3]", "value": "> 50", "unit": "µM"}
    ]},
    {"smiles": "CC1=CC(=O)[C@]2(O)[C@@]3(O)C(=O)[C@@H]4[C@]5(CO)[C@H]6CC(=O)O[C@@H]5C[C@@]1([C@@]42C)[C@]63C", "note": "[SHINJULACTONE C]", "values": [
      {"measurement": "IC50", "setting": "HepG2 [1]", "value": "> 50", "unit": "µM"},
      {"measurement": "IC50", "setting": "HepG2 [2]", "value": "> 50", "unit": "µM"},
      {"measurement": "IC50", "setting": "[3]", "value": "> 50", "unit": "µM"}
    ]}
  ]
}
